{
  "source": "patent US20120288554A1",
  "about": "“CANFOSFAMIDE MONOTHERAPY FOR TREATING MULTIPLE MYELOMA” (Telik, Inc., priority 2011, published 2012)",
  "key": {"[1]": {"system": "refractory or relapsed multiple myeloma", "method": "This example is a single arm, open label, Phase 2 clinical test that tests the safety and efficacy of canfosfamide monotherapy for the treatment of refractory or relapsed multiple myeloma. Refractory or relapsed multiple myeloma patients were administered canfosfamide hydrochloride in an amount of 1000 mg/m^2, intravenously (IV), over 30 minutes, once every 2 weeks (a cycle of therapy). Response was assessed after every 3 cycles of therapy."}, "multiple myeloma": {"system": "multiple myeloma", "conditions": "cited from earlier work"}},
  "note": "Where a name gives a salt, the structure may show the parent alone. Read-outs that look alike come from different tables or passages of the source.",
  "data": [
    {"smiles": "N[C@@H](CCC(=O)N[C@@H](CS(=O)(=O)CCOP(=O)(N(CCCl)CCCl)N(CCCl)CCCl)C(=O)N[C@@H](C(=O)O)c1ccccc1)C(=O)O", "note": "[canfosfamide hydrochloride]", "values": [
      {"measurement": "IFE (with 24 hour UPEP)", "setting": "[1]; Patient No. 1, after cycle #3", "value": "only IFE positive."},
      {"measurement": "Lambda FLC", "setting": "[1]; Patient No. 1, after cycle #3, baseline 0.19 mg/dL", "value": "Lambda FLC: 0.23 mg/dL"},
      {"measurement": "Kappa FLC (monoclonal free light chains)", "setting": "[1]; Patient No. 1, after cycle #3, baseline 3.94 mg/dL", "value": "Kappa FLC: 1.66 mg/dL"},
      {"measurement": "24 hour UPEP (urine protein electrophoresis)", "setting": "[1]; Patient No. 1, after cycle #3, baseline 0.4 grams", "value": "24 hour UPEP: 0.2 grams with"},
      {"measurement": "FLC Ratio (kappa to lambda)", "setting": "[1]; Patient No. 1, after cycle #3, baseline 20.74", "value": "FLC Ratio: 7.22"},
      {"measurement": "SPEP M-spike (serum protein electrophoresis monoclonal protein level)", "setting": "[1]; Patient No. 1, after cycle #3 of monotherapy, 1000 mg/m^2 IV once every 2 weeks, baseline 1.3 g/dL", "value": "SPEP M-spike: 1.0 g/dL"},
      {"measurement": "FLC Ratio", "setting": "[1]; Patient No. 1, after cycle #6", "value": "FLC Ratio: 2.32"},
      {"measurement": "IFE", "setting": "[1]; Patient No. 1, after cycle #6", "value": "albumin and IFE: negative."},
      {"measurement": "Kappa FLC", "setting": "[1]; Patient No. 1, after cycle #6", "value": "Kappa FLC: 1.44 mg/dL"},
      {"measurement": "Lambda FLC", "setting": "[1]; Patient No. 1, after cycle #6", "value": "Lambda FLC: 0.62 mg/dL"},
      {"measurement": "Overall disease response", "setting": "[1]; Patient No. 1, after cycle #6", "value": "“partial response.”"},
      {"measurement": "Bone Marrow Biopsy plasma cells", "setting": "[1]; Patient No. 1, after cycle #6, baseline 75%", "value": "Bone Marrow Biopsy: 20%"},
      {"measurement": "24 hour UPEP", "setting": "[1]; Patient No. 1, after cycle #6, with albumin", "value": "24 hour UPEP: 0.5 grams with"},
      {"measurement": "SPEP M-spike", "setting": "[1]; Patient No. 1, after cycle #6 of monotherapy, baseline 1.3 g/dL", "value": "SPEP M-spike: 0.18 g/dL"},
      {"measurement": "Lambda FLC", "setting": "[1]; Patient No. 2, after cycle #3, baseline 282 mg/dL", "value": "Lambda FLC: 218 mg/dL"},
      {"measurement": "24 hour UPEP", "setting": "[1]; Patient No. 2, after cycle #3, baseline 7.9 grams", "value": "24 hour UPEP: 5.8 grams."},
      {"measurement": "Kappa FLC", "setting": "[1]; Patient No. 2, after cycle #3, baseline <0.11 mg/dL", "value": "Kappa FLC: <0.11 mg/dL"},
      {"measurement": "SPEP M-spike", "setting": "[1]; Patient No. 2, after cycle #3 of monotherapy, baseline 5.37 g/dL", "value": "SPEP M-spike: 3.18 g/dL"},
      {"measurement": "Response to monotherapy on follow-up", "setting": "[1]; Patient no. 1, 6 weeks and 12 weeks after initiating treatment", "value": "continued to respond"},
      {"measurement": "Tumor lysis syndrome", "setting": "[1]; after the first cycle of administration", "value": "observed"},
      {"measurement": "Efficacy as monotherapy", "setting": "[1]; multiple myeloma refractory to combination chemotherapy and/or radiation or stem cell transplantation", "value": "effective as monotherapy"},
      {"measurement": "Patients demonstrating positive treatment outcomes", "setting": "[1]; of the three multiple myeloma patients treated", "value": "two"}
    ]},
    {"smiles": "Nc1cccc2c1CN(C1CCC(=O)NC1=O)C2=O", "note": "(stereo not shown) [Lenalidomide, lenalidomide]", "values": [
      {"measurement": "Venous thromboembolic (VTE) adverse effects", "setting": "multiple myeloma; nearly all lenalidomide trials", "value": "increased risk of VTE"}
    ]},
    {"smiles": "O=C1CCC(N2C(=O)c3ccccc3C2=O)C(=O)N1", "note": "(stereo not shown) [Thalidomide, thalidomide]", "values": [
      {"measurement": "Partial remission rate", "setting": "multiple myeloma; thalidomide alone, relapsed/refractory multiple myeloma patients", "value": "about 30 % of patients"}
    ]},
    {"smiles": "CC(C)C[C@H](NC(=O)[C@H](Cc1ccccc1)NC(=O)c1cnccn1)B(O)O", "note": "[Bortezomib, bortezomib]", "values": [
      {"measurement": "Peripheral neuropathy", "setting": "multiple myeloma; patients with multiple myeloma", "value": "dose-limiting toxicity"}
    ]}
  ]
}
